Where two headings read alike, the source gives them in different places.
Legend:
5-lipoxygenase [1] = assay: Inhibition of antigen-induced, SRS-A mediated bronchioconstriction in conscious guinea pigs; assay type: in vivo; details: i.p. in 5% Tween 80 suspension, 30mg/kg, 60 minutes before antigen challenge; % inhibition of the decrease in Cdyn
Excerpt: Inhibition of Antigen-Induced, SRS-A Mediated Bronchioconstriction in Conscious Guinea Pigs
This model is used to measure the ability of a drug to inhibit 5-lipoxygenase in vivo. SRS-A (slow reacting substance of anaphylaxis - also referred to as leukotrienes C₄, D₄ and E₄) is released by cells in the sensitized guinea pig upon stimulation by antigen, resulting in bronchioconstriction and change in pulmonary function. The leukotrienes are biosynthesized from arachidonic acid by the enzyme 5-lipoxygenase. Therefore, an inhibitor of 5-lipoxygenase could reduce the production of SRS-A and attenuate the bronchioconstriction.
Male outbred Hartley strain albino guinea pigs (250-300 grams) were sensitized by i.p. injection of ovalbumin (3mg/kg) followed by an i.p. injection of Bordetella pertussis (about 5x10⁹ killed organisms) and studied 14 days later.
Sensitized guinea pigs (fasted for 18 hours) were anesthesized and a catheter-tip pressure transducer was inserted into the pleural space of each animal. The animals are pretreated (i.p.) with pyrilamine (10mg/kg) and indomethacin (10mg/kg) to antagonize the effects of histamine and inhibit cyclooxygenase respectively. Cyclooxygenase products and histamine are released endogenously along with SRS-A, upon antigen challenge. Test compound is also administered i.p., 60 minutes before antigen challenge.
The guinea pigs were placed in a "head out" plethysmograph and allowed to recover from anesthesia. Airflow into the respiratory system, pleural pressure and airflow signals were measured, and tidal volume, dynamic pulmonary compliance (Cdyn) and breathing frequency were calculated according to a published technique (E.G. Damen et al., Toxicol. Appl. Pharmacol., 1982, 64, 465). After baseline values for pulmonary function were obtained, the animals were challenged by aerosolized ovalbumin. The overall changes in pulmonary function parameters were determined by calculating the mean changes from baseline during the period 5 to 15 minutes following antigen challenge.
Drug efficacy was determined by comparing the mean of the percent decrease in Cdyn from baseline in drug treated animals (N=4-6) to control animals (N=10-12).

5-lipoxygenase [2] = molecular target: T1, 5-lipoxygenase (Homo sapiens, UniProt P09917); assay: Inhibition of 5-lipoxygenase (5-HETE biosynthesis) in human polymorphonuclear leukocytes; assay type: cell-based; details: human PMN's, 5-HETE band vs control; test concentration 1 microM; read-out: Inhibition of 5-LO % at 1 M
T1 construct: Human PMN's (5 x 10⁶ cells/0.5 mL) in pH 7.2 phosphate buffer; endogenous in cells; host or cells: human polymorphonuclear leukocytes (PMN)
T1 sequence (P09917 1-674): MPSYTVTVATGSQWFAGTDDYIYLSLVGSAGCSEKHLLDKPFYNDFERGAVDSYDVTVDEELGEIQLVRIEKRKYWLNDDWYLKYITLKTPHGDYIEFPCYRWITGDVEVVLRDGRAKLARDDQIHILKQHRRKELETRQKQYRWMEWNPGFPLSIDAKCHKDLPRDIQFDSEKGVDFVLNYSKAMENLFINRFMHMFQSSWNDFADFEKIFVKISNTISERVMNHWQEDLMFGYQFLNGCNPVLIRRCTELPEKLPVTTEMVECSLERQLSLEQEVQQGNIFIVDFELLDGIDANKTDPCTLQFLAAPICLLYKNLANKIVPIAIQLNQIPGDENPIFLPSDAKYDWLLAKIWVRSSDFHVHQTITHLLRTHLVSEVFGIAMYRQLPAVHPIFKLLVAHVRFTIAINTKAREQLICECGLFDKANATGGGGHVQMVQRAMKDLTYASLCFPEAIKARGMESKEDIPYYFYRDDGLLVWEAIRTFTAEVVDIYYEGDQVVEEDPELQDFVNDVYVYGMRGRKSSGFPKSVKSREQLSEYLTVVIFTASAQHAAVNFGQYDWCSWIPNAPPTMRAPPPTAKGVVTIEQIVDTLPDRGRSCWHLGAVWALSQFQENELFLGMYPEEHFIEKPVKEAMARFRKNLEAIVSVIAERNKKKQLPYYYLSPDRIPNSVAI
Procedure: Inhibition of 5-Lipoxygenase in Human Polymorphonuclear Leukocytes (PMN's)
The inhibition of 5-lipoxygenase is measured by determining whether and to what extent test compounds inhibit the amount of 5-HETE biosynthesized by human PMN's. 5-HETE biosynthesis serves as a marker for arachidonic acid metabolism by 5-lipoxygenase.
Human PMN's (5 x 10⁶ cells/0.5 mL) in pH 7.2 phosphate buffer containing Ca²⁺ (0.6 mM) and Mg²⁺ (1.0 mM) were incubated with test compound for 15 minutes at 37°C with shaking. Calcium ionophore A23187 (0.25 mM, 0.01 mL) and [¹⁴C] arachidonic acid (0.10 microCi in 0.025 mL 0.01N NaOH) were added, and the mixture incubated another 2.5 minutes. The reaction was terminated by the addition of 0.025 mL of 1.0 N HCl. The mixture was then extracted with ethyl acetate-methylene chloride (2:3) supplemented with 12 microgram/mL cold arachidonic acid to reduce degradation of the metabolites. After concentrating the organic phase, the number of microlitres containing 5 x 10⁴ cpm was determined and that volume applied to a silica gel plate. The plate was developed in methylene-chloride-methanol-acetic acid-water (90:8:1:0.8), air dried, and counted on a Berthold linear TLC analyzer. The integrated area of the 5-HETE band was determined and compared with the control (no drug).
In cases where the IC₅₀ was determined, the result is shown in microM.

[3] = system: A23187-Induced LTB₄ Generation; assay: Ex vivo inhibition of A23187-induced LTB4 generation in squirrel monkey blood; parameters: species or system Squirrel Monkeys; details: Primates, 1 h, 60 min after dosing, vehicle per footnotes 2-4
Procedure: Ex Vivo Inhibition of A23187-Induced LTB₄ Generation in Squirrel Monkeys.
Incubation of squirrel monkey whole blood with calcium ionophore A23187 stimulates the production of LTB₄. This LTB₄ production can be inhibited by a lipoxygenase inhibitor in vitro by incubating the blood with the inhibitor prior to A23187 challenge. By dosing squirrel monkeys with a lipoxygenase inhibitor prior to withdrawal of a blood sample, one can determine the ability of the lipoxygenase inhibitor to be absorbed into the bloodstream by measuring the inhibition of A23187 induced LTB₄ production ex vivo.
Squirrel monkeys (400-650g) were fasted for 18 hours, anesthetized and dosed either orally or intraperitoneally with test compound. After the desired time period, blood was withdrawn from the femoral vein. The blood (0.5 mL) was heparinized, preincubated at 37°C for 5 minutes and stimulated with A23187 in DMSO to give a final concentration of 30 microM. The reaction was terminated with EGTA (final concentration 10 microM), and the blood centrifuged. Levels of LTB₄ in the plasma were then determined by radioimmunoassay.
The results shown in Table 4 illustrate the ability of a prodrug of type 2a or 2b to be absorbed after ip or po dosing compared to the parent compound 1a.

5-lipoxygenase [4] = assay: Inhibition of antigen-induced, late phase inflammatory cell infiltration in guinea pigs; assay type: in vivo; details: 60 minutes before antigen challenge, lung lavage four hours after challenge
Excerpt: Inhibition of Antigen-Induced, Late Phase Inflammatory Cell Infiltration in Guinea Pigs
This model is used to measure the ability of a drug to inhibit 5-lipoxygenase in vivo. In addition to SRS-A, a chemotactic substance LTB₄ is also released by cells in the sensitized guinea pig lung upon stimulation by antigen. As a result there is a measurable influx of cells into the lung. Therefore, an inhibitor of 5-lipoxygenase could reduce the formation of LTB₄ and thereby reduce the cell influx into the lung.
Male outbred Hartley strain albino guinea pigs (250-300 grams) were sensitized to ovalbumin as in the procedure for inhibition of antigen-induced, SRS-A mediated bronchioconstriction in conscious guinea pigs.
Sensitized guinea pigs were fasted and pretreated with pyrilamine and indomethacin as in bronchioconstriction testing procedure. Test compounds, suspended in 1% acacia, were administered 60 minutes before antigen challenge. […] Whole lung lavage was performed with three 5 mL aliquots of normal saline buffered with sodium bicarbonate.
Total cell counts were performed on a Coulter Counter, and differential cell counts were performed. Compounds were evaluated for their ability to alter the antigen-induced total cell influx and, more specifically, neutrophil (PMN) influx.

Compound	% Inhibition of Bronchioconstriction (5-lipoxygenase [1]) [%]	inhibition at 1 µM (5-lipoxygenase [2]) [%]	other results
CCc1cc(C=Cc2cccs2)cc(OC)c1O [Compound 1e]	51	85	
Cc1cc(C=Cc2cccnc2)cc(C)c1O [Compound 1x]	39	62	
Cc1cc(C=Cc2ccsc2)cc(C)c1O [Compound 1o]	26	84	
Cc1cc(C=Cc2cccs2)cc(C)c1O [Compound 1a, 2,6-Dimethyl-4-[2-(2-thienyl)ethenyl]phenol]	75	91	inhibition at 30 mg/kg ([3]; 30 mg/kg ip, read-out: Percent Inh. Monkey 2): 12%; inhibition at 30 mg/kg ([3]; 30 mg/kg ip, read-out: Percent Inh. Monkey 3): 4%; inhibition at 30 mg/kg ([3]; 30 mg/kg ip, read-out: Percent Inh. Monkey #1): 47%; inhibition at 30 mg/kg ([3]; 30 mg/kg po, read-out: Percent Inh. Monkey 2): 0%; inhibition at 30 mg/kg ([3]; 30 mg/kg po, read-out: Percent Inh. Monkey 3): 0%; inhibition at 30 mg/kg ([3]; 30 mg/kg po, read-out: Percent Inh. Monkey #1): 18%; % Inh. PMN (5-lipoxygenase [4]; 30 mg/kg ip): 95%; % Inh. Total Cells (5-lipoxygenase [4]; 30 mg/kg ip): 78%; % Inh. PMN (5-lipoxygenase [4]; 30 mg/kg po): 14%; % Inh. Total Cells (5-lipoxygenase [4]; 30 mg/kg po): 51%
COc1cc(C=Cc2cccs2)cc(C)c1O [Compound 1d, 2-Methoxy-6-methyl-4-[2-(2-thienyl)ethenyl]phenol]	41	65	
CCCc1cc(C=Cc2cccs2)cc(OC)c1O [Compound 1f]	57	76	% Inh. PMN (5-lipoxygenase [4]; 30 mg/kg ip): 54%; % Inh. Total Cells (5-lipoxygenase [4]; 30 mg/kg ip): 77%
CC(C)c1cc(C=Cc2cccnc2)cc(C(C)C)c1O [Compound 1ab]	34	73	
